≈ marks a conversion by molar mass, not a printed value.
settings: buffer; pH 7.4; 200.0 µM

| SMILES | solubility kinetic |
| --- | --- |
| Cc1ccc(S(N)(=O)=O)c(C)c1N1CCCC1=O | > 40.2 µg/mL |
| Cn1c(=O)c([N+](=O)[O-])c(N2CCSCC2)c2ccccc21 | 2.2 µg/mL (≈ 7.2 µM) |
| O=C(O/N=C1\CCS(=O)(=O)c2sccc21)C1CC1 | > 42.8 µg/mL |
| O=C(c1ccco1)N1CCN(Cc2nc3ccccc3[nH]2)CC1 | 41.2 µg/mL (≈ 133 µM) |
| CC1(C)Cc2c(sc(NC(=O)Cc3ccccc3)c2C#N)CO1 | 0.4 µg/mL (≈ 1.23 µM) |
| Nc1cccc(C(=O)NCCNC(=O)c2cccc(N)c2)c1 | > 44.8 µg/mL |
| CN(C)c1ccc(/C=C2\SC(N3CCCCC3)=NC2=O)cc1 | 4.7 µg/mL (≈ 14.9 µM) |
| CNc1nc(Cl)nc(Nc2ccccc2)n1 | 2 µg/mL (≈ 8.49 µM) |
| Cc1ncc([N+](=O)[O-])n1CC(=O)Nc1cccc(C(F)(F)F)c1 | 6 µg/mL (≈ 18.3 µM) |
| COc1ccc2cc(C3(C)NC(=O)N(CC(=O)N4CCCCC4)C3=O)ccc2c1 (stereo unspecified) | 14.6 µg/mL (≈ 36.9 µM) |
| CC(=O)Cn1ncc(N2CCOCC2)c(Br)c1=O | > 47.4 µg/mL |
| Cc1ccccc1C(=O)NCC(=O)OC1CCCCC1=O (stereo unspecified) | > 43.4 µg/mL |
| Cc1ccsc1C(=O)NCCc1c[nH]c2ccccc12 | > 42.7 µg/mL |
| COc1ccc(/C=N/NC(=O)c2ccncc2)c(C(=O)O)c1OC | > 49.4 µg/mL |
| COc1ccc(C(C)NS(=O)(=O)Cc2ccccc2)cc1 (stereo unspecified) | 43 µg/mL (≈ 141 µM) |
| CC(=O)c1ccc(NC(=O)c2cc(-c3cccs3)on2)cc1 | < 0.3 µg/mL |
| O=C(COc1nncc2ccccc12)NCC(F)(F)F | > 42.8 µg/mL |
| CCN(c1ccccc1)S(=O)(=O)c1ccc(OC)c(NC(=O)c2ccc(=O)[nH]c2)c1 | 24.2 µg/mL (≈ 56.6 µM) |
| Cc1ccc(C(=O)C(C)[n+]2cccc(C(N)=O)c2)cc1.[Br-] (stereo unspecified) | > 52.4 µg/mL |
| Clc1cccc(C2NCc3ccccc3-n3cccc32)c1 (stereo unspecified) | 3.5 µg/mL (≈ 11.9 µM) |
| Br.CCCN(CCC)C1CCc2cccc(O)c2C1 (stereo unspecified) | > 49.2 µg/mL |
| COc1ccccc1NC(=O)O/N=C(\N)c1ccccc1 | > 42.8 µg/mL |
| Cc1cccnc1Nc1ncnc(N)c1[N+](=O)[O-] | 36.3 µg/mL (≈ 147 µM) |
| Cc1cc(C)c2c(N)c(C(=O)c3ccc(Br)cc3)oc2n1 | 1.2 µg/mL (≈ 3.48 µM) |
| CCOc1ccccc1NC(=O)C(=O)CC(=O)c1ccc(OC)cc1 | 6.1 µg/mL (≈ 17.9 µM) |

| SMILES | solubility kinetic |
| --- | --- |
| COC(=O)C(c1ccccc1)C1(O)CC(C)N(C)CC1C (stereo unspecified) | > 43.7 µg/mL |
| Cn1cc(S(=O)(=O)NCC2CCCO2)c(=O)n(C)c1=O (stereo unspecified) | > 45.5 µg/mL |
| COc1ccccc1N(CC(=O)NC1CCCCC1C)S(=O)(=O)c1cccs1 (stereo unspecified) | 2 µg/mL (≈ 4.73 µM) |
| O=C(Nc1nnc(-c2ccco2)o1)c1cccc(N2C(=O)CCC2=O)c1 | > 52.8 µg/mL |
| O=C(/C=C/c1ccc(-c2ccccc2)cc1)NCc1cccnc1 | < 0.3 µg/mL |
| Clc1ccc(-c2nc(-c3ccncc3)no2)c(Cl)c1 | < 0.2 µg/mL |
| O=C(CN1CCCCC1)Nc1nc(-c2ccc(F)c(F)c2)cs1 | 2 µg/mL (≈ 5.93 µM) |
| S=C(Nc1cccnc1)N1CCN(c2ccccc2Cl)CC1 | 44.2 µg/mL (≈ 133 µM) |
| COC(=O)c1ccsc1-n1cc(C#N)c(=O)n(C)c1=O | > 43.7 µg/mL |
| CC(Oc1ccc2c(-c3ccccc3)cc(=O)oc2c1)C(=O)N1CCOCC1 (stereo unspecified) | > 56.9 µg/mL |
| COc1ccc(NS(=O)(=O)c2ccc3c(c2)OCCO3)cc1OC | > 52.7 µg/mL |
| COC(=O)C(NC(=O)CN1C(=O)c2ccccc2C1=O)c1ccc(O)c(OC)c1 (stereo unspecified) | 55.8 µg/mL (≈ 140 µM) |
| O=C(N/C(=C\c1ccco1)C(=O)N1CCC(O)CC1)c1ccccc1 | 41.1 µg/mL (≈ 121 µM) |
| Cc1ccc(S(=O)(=O)NC(=O)Nc2cccc(C)n2)cc1 | > 45.8 µg/mL |
| Cc1cccc(C(=O)OC(C)CN2C(C)CCCC2C)c1.Cl (stereo unspecified) | > 48.9 µg/mL |
| Cc1ccc2nc3c(cc(C#N)c(=N)n3Cc3cccnc3)c(=O)n2c1 | 2.1 µg/mL (≈ 6.13 µM) |
| CC(C)(C)c1ccc(Cn2c(=O)cnc3ccccc32)cc1 | 0.4 µg/mL (≈ 1.37 µM) |
| O=C(COC(=O)c1ccc2ccccc2c1O)NCc1ccccc1 | 3 µg/mL (≈ 8.95 µM) |
| CCN(CC)C(=O)C1=C(C)NC(=S)NC1c1ccc(C)s1 (stereo unspecified) | 44.1 µg/mL (≈ 136 µM) |
| CC(NS(=O)(=O)c1ccccc1)C(=O)NCCc1ccccn1 (stereo unspecified) | > 50 µg/mL |
| Cc1ccc(OCc2nc(-c3ccccc3)no2)cc1 | 0.4 µg/mL (≈ 1.5 µM) |
| Cc1nc2ccccc2c(=O)n1-c1ccc(Br)cn1 | > 47.4 µg/mL |
| CC(NC(=O)Cn1cc(C(F)(F)F)ccc1=O)c1ccc(F)cc1 (stereo unspecified) | 23.5 µg/mL (≈ 68.7 µM) |
| O=C(CSc1ccc(Cl)cc1)Nc1ccc(C2SCCS2)cc1 | 1 µg/mL (≈ 2.62 µM) |
| COc1ccccc1OCC(=O)N1CCCCCCC1 | > 41.6 µg/mL |

| SMILES | solubility kinetic |
| --- | --- |
| COc1ccc(OC(=O)C(C)N2C(=O)c3ccccc3C2=O)cc1 (stereo unspecified) | 33.3 µg/mL (≈ 102 µM) |
| Cc1ccc(NC(=O)CN(C)C(=O)c2ccc(Br)o2)cc1 | 14.1 µg/mL (≈ 40.1 µM) |
| CC(C(O)c1cc(=O)c(OCc2ccccc2)co1)[N+](=O)[O-] (stereo unspecified) | 33.1 µg/mL (≈ 108 µM) |
| O=C(NCc1cccnc1)Nc1ccccc1C(F)(F)F | > 44.3 µg/mL |
| Cc1ccc(Cl)c(NC(=O)CSc2cccc[n+]2[O-])c1Cl | > 51.5 µg/mL |
| Cc1csc(NC(=O)Cc2ccc(F)cc2)n1 | > 37.5 µg/mL |
| CC1CC(=O)Nc2cc([N+](=O)[O-])ccc2N1 (stereo unspecified) | > 33.2 µg/mL |
| CC(C(=O)Nc1ccccc1)N1C(=O)c2ccccc2C1=O (stereo unspecified) | > 44.1 µg/mL |
| CC(C)C(=O)Nc1ccc(NC(=O)c2ccc3c(c2)OCO3)cc1 | < 0.3 µg/mL |
| CC(C)NC(=O)c1cccc2c1-c1ccccc1C2=O | 13.3 µg/mL (≈ 50.1 µM) |
| COc1ccc(OC)c(NC(=O)CN2CCc3ccccc3C2)c1 | 14.9 µg/mL (≈ 45.7 µM) |
| COc1ccc(C(=O)Nc2ccc(NC(=O)C(C)C)nc2)cc1 | 3.1 µg/mL (≈ 9.89 µM) |
| O=C(NC1CC1)c1cc2cc(Br)ccc2s1 | < 0.6 µg/mL |
| COc1ccc(OC(=O)N2CCOCC2)cc1 | > 35.6 µg/mL |
| COC(=O)c1cc(C(=O)c2ccc(C(C)(C)C)cc2)c[nH]1 | 18.2 µg/mL (≈ 63.8 µM) |
| COC(=O)c1cc(COC(=O)CNC(=O)c2ccc(Br)cc2)oc1C | 6.8 µg/mL (≈ 16.6 µM) |
| CCOC(=O)c1cnc(SC)nc1NCCOC | > 40.7 µg/mL |
| CCCc1nc2ccccc2c(=O)n1CCc1ccccc1 | 1.7 µg/mL (≈ 5.81 µM) |
| Cc1cccc(SCC(=O)Nc2ccccc2[N+](=O)[O-])c1 | 3.7 µg/mL (≈ 12.2 µM) |
| c1ccc(SCc2nc3ccccc3s2)nc1 | 17.8 µg/mL (≈ 68.9 µM) |
| Cc1ccc(C)c(S(=O)(=O)N2CCNCC2)c1 | > 38.2 µg/mL |
| Cn1cnc2c1c(=O)[nH]c(=O)n2Cc1ccccc1 | > 38.4 µg/mL |
| N/C(=N\OC(=O)COc1ccc2ccccc2c1)c1ccncc1 | 6.2 µg/mL (≈ 19.3 µM) |
| Cc1cccc(C)c1OCCN1CCCC1 | 28.7 µg/mL (≈ 131 µM) |
| CCn1c(=S)[nH]c2sc3c(c2c1=O)CCCC3 | 9.2 µg/mL (≈ 34.5 µM) |

| SMILES | solubility kinetic |
| --- | --- |
| O=C(/C=C/c1cccnc1)c1cccc(O)c1 | 29.9 µg/mL (≈ 133 µM) |
| Cn1c(COc2ccccc2Br)nc2ccccc21 | 1.4 µg/mL (≈ 4.41 µM) |
| O=C(CCl)Nc1sccc1C(=O)c1ccccc1 | 3.6 µg/mL (≈ 12.9 µM) |
| O=C(Cn1c(CO)nc2ccccc21)NCc1ccc2c(c1)OCO2 | > 50.9 µg/mL |
| O=C(CCCC(=O)c1ccccc1)Nc1ccc(O)cc1 | > 42.5 µg/mL |
| COc1ccc(NC(=O)CS(=O)c2cccc(Cl)c2)cc1 (stereo unspecified) | > 48.6 µg/mL |
| COc1ccc(NC(=O)NCCN2CCCCC2)cc1 | 33.9 µg/mL (≈ 122 µM) |
| CCOc1ccccc1NC(=O)CN1C(=O)COc2ccc(C)cc21 | 2.4 µg/mL (≈ 7.05 µM) |
| CCCN(C(=O)CCl)C1=CCCCC1 | 31 µg/mL (≈ 144 µM) |
| CCc1cccc(NC(=O)CC2SC(N3CCCC3)=NC2=O)c1 (stereo unspecified) | > 49.7 µg/mL |
| CC(CCc1ccccc1)NCC(O)COc1ccccc1 (stereo unspecified) | 43.1 µg/mL (≈ 144 µM) |
| CC(C)C1N(C(=O)N(C)C)CCN1S(=O)(=O)c1ccccc1 (stereo unspecified) | > 48.8 µg/mL |
| N#CC1(P(=O)(c2ccccc2)c2ccccc2)CCCC1 | > 44.3 µg/mL |
| CN(C(=O)C1CCCCN1S(=O)(=O)c1ccccc1)c1ccccc1 (stereo unspecified) | > 53.8 µg/mL |
| COc1ccc(OCCCC(=O)Nc2nccs2)cc1 | > 43.9 µg/mL |
| Cc1nc2sc(C(=O)OC(C)C)c(N)c2c(C)c1C | < 0.3 µg/mL |
| Cc1cc(NC(=O)CN2C(=O)NC(CCc3ccccc3)C2=O)no1 (stereo unspecified) | > 51.4 µg/mL |
| Cc1ccc(CN2CCc3[nH]c(=S)[nH]c(=O)c3C2)cc1 | 10.5 µg/mL (≈ 36.5 µM) |
| O=C(Nc1ccccc1)c1cn2ccccc2n1 | 14.7 µg/mL (≈ 62 µM) |
| Oc1ccc(Br)cc1CNc1ccccn1 | 3.4 µg/mL (≈ 12.2 µM) |
| CCOC(=O)c1sc(NC(=O)CN2CC(C)OC(C)C2)nc1C (stereo unspecified) | 49 µg/mL (≈ 144 µM) |
| CCCNC(=S)N1CCC(C(=O)c2ccc(Cl)cc2)CC1 | 2.2 µg/mL (≈ 6.77 µM) |
| Nc1nc2c([N+](=O)[O-])cccc2s1 | 23 µg/mL (≈ 118 µM) |
| CCN/C=C(\C#N)S(=O)(=O)c1ccc(Br)cc1 | 34.8 µg/mL (≈ 110 µM) |
| Cc1nc(Cl)sc1C(=O)Nc1cc(F)cc(F)c1 | 20.7 µg/mL (≈ 71.7 µM) |

| SMILES | solubility kinetic |
| --- | --- |
| O=C(CSCc1c(F)cccc1Cl)NCCc1ccccc1 | 40.2 µg/mL (≈ 119 µM) |
| CC(C)CN(C(=O)CN(C)CC(=O)Nc1ccc(Cl)c(C(F)(F)F)c1)c1c(N)n(CC(C)C)c(=O)[nH]c1=O | 6 µg/mL (≈ 10.7 µM) |
| CC(Sc1ccc(S(=O)(=O)N2CCOCC2)cn1)c1ccccc1Cl (stereo unspecified) | 5.9 µg/mL (≈ 14.8 µM) |
| O=C(NC(=S)Nc1ccc(CN2CCOCC2)cc1)c1ccco1 | > 51.8 µg/mL |
| Br.Clc1ccccc1CNCC1CCCO1 (stereo unspecified) | 41 µg/mL |
| COc1ccc(CN2CCSCC2)c(OC)c1C | 26.4 µg/mL (≈ 98.7 µM) |
| CN(C)CC(C)(C)CNc1ccc(S(=O)(=O)N2CCCC2)cn1 | > 51.1 µg/mL |
| C=CCNc1nc(NCc2ccccc2)nc(OCC)n1 | 36.6 µg/mL (≈ 128 µM) |
| COc1ccccc1C(CNc1ncccc1[N+](=O)[O-])N(C)C (stereo unspecified) | > 47.5 µg/mL |
| CC12CCC(=O)N1C(C(=O)Nc1cccc(F)c1)CS2 (stereo unspecified) | > 44.2 µg/mL |
| CC1CN(C(C)C)C(C)CC1OC(=O)c1ccccc1 (stereo unspecified) | > 41.3 µg/mL |
| CC(=O)Nc1ccc(NC(=O)C(C)OC(=O)CCSc2ccccc2Cl)cc1 (stereo unspecified) | 10.2 µg/mL (≈ 24.2 µM) |
| N#CCCN(Cc1ccccc1)C(=O)Nc1ccccc1 | > 41.9 µg/mL |
| Cc1cc(C(=O)NCc2ccccc2F)c2ccccc2n1 | 9.3 µg/mL (≈ 31.6 µM) |
| COC(=O)c1ccc(CN2C(=O)c3ccccc3C2=O)o1 | > 42.8 µg/mL |
| O=c1[nH]cnc2onc(-c3ccc(F)cc3)c12 | > 34.7 µg/mL |
| Cc1ccc(Nc2nc(-c3ccc(F)cc3)cs2)nc1 | < 0.2 µg/mL |
| COc1ccc(C/C(N)=N/OC(=O)c2ccc(Cl)cc2)cc1 | 0.6 µg/mL (≈ 1.88 µM) |
| Cc1ccc(Sc2nc(C)c([N+](=O)[O-])c(C)c2C#N)cc1 | 0.7 µg/mL (≈ 2.34 µM) |
| Cc1ccc(C)c(C(=O)N2CCN(c3ncccn3)CC2)c1 | > 44.5 µg/mL |
| Cc1cc(C(=O)O)ccc1-n1c(C)cc(/C=C2\SC(=O)NC2=O)c1C | > 53.5 µg/mL |

Reference: PubChem BioAssay AID1996
